Measured values from patent publication US20200390100A1, “SUBSTITUTED N-HETEROCYCLYL- AND N-HETEROARYL-TETRAHYDROPYRIMIDINONES AND THE SALTS THEREOF, AND THE USE OF SAME AS HERBICIDAL ACTIVE SUBSTANCES” (Bayer Aktiengesellschaft, priority 2017, published 2020).

How the values were obtained:
Digitaria sanguinalis [1] = experiment: Post-emergence herbicidal action, greenhouse, 320 g/ha; assay type: in vivo; conditions: application rate 320 g/ha, rated visually after about 3 weeks vs untreated controls
In short: (§1)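 Plants treated post-emergence at the one-leaf stage, 2 to 3 weeks after sowing in sandy loam, with WP or EC formulations plus 0.5% additive at 320 g/ha. Visual rating about 3 weeks later versus untreated controls (100% = dead, 0% = like control).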

Hordeum murinum [2] = experiment: as above; assay type: in vivo; conditions: application rate 320 g/ha, rated visually after about 3 weeks vs untreated controls
In short: as §1

Pharbitis purpurea [3] = experiment: as above; assay type: in vivo; conditions: application rate 320 g/ha, rated visually after about 3 weeks vs untreated controls
In short: as §1

Abutilon theophrasti [4] = experiment: Pre-emergence herbicidal action, greenhouse, 320 g/ha; assay type: in vivo; conditions: application rate 320 g/ha, scored visually after about 3 weeks vs untreated controls
In short: (§2)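 Sow seeds in soil-filled pots, cover. Spray compound (WP/EC, aqueous, +0.5% additive) on covering soil. Hold under good growth conditions ~3 wk. Score % effect visually vs untreated.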

Alopecurus myosuroides = experiment: as above; assay type: in vivo; conditions: application rate 320 g/ha, scored visually after about 3 weeks vs untreated controls
In short: as §2

Amaranthus retroflexus [5] = experiment: as above; assay type: in vivo; conditions: application rate 320 g/ha, scored visually after about 3 weeks vs untreated controls
In short: as §2

Avena fatua = experiment: as above; assay type: in vivo; conditions: application rate 320 g/ha, scored visually after about 3 weeks vs untreated controls
In short: as §2

Digitaria sanguinalis [6] = experiment: as above; assay type: in vivo; conditions: application rate 320 g/ha, Table B9
In short: as §2

Echinochloa crus-galli [7] = experiment: as above; assay type: in vivo; conditions: application rate 320 g/ha, scored visually after about 3 weeks vs untreated controls
In short: as §2

Hordeum murinum [8] = experiment: as above; assay type: in vivo; conditions: application rate 320 g/ha, Table B14
In short: as §2

Matricaria inodora [9] = experiment: as above; assay type: in vivo; conditions: application rate 320 g/ha, scored visually after about 3 weeks vs untreated controls
In short: as §2

Polygonum convolvulus [10] = experiment: as above; assay type: in vivo; conditions: application rate 320 g/ha, scored visually after about 3 weeks vs untreated controls
In short: as §2

Setaria viridis [11] = experiment: as above; assay type: in vivo; conditions: application rate 320 g/ha, Table B11
In short: as §2

Stellaria media [12] = experiment: as above; assay type: in vivo; conditions: application rate 320 g/ha, scored visually after about 3 weeks vs untreated controls
In short: as §2

Viola tricolor [13] = experiment: as above; assay type: in vivo; conditions: application rate 320 g/ha, Table B8
In short: as §2

Amaranthus retroflexus [14] = experiment: Herbicidal post-emergence action (Part 2), 1280 g/ha; assay type: in vivo; conditions: application rate 1280 g/ha, rated visually after about 3 weeks, Table C5
In short: (§3)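 Weeds sown in sandy loam, greenhouse-grown 2 to 3 weeks and sprayed at the one-leaf stage with WP or EC formulations as aqueous suspension or emulsion plus 0.5% additive at 600 liters per hectare water. Activity rated visually about 3 weeks later versus untreated controls (0% = like control, 100% = dead).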

Echinochloa crus-galli [15] = experiment: as above; assay type: in vivo; conditions: post-emergence (Part 2), application rate 1280 g/ha, rated visually after about 3 weeks vs untreated controls
In short: as §3

Matricaria inodora [16] = experiment: as above; assay type: in vivo; conditions: application rate 1280 g/ha, rated visually after about 3 weeks, Table C6
In short: as §3

Stellaria media [17] = experiment: as above; assay type: in vivo; conditions: application rate 1280 g/ha, rated visually after about 3 weeks, Table C7
In short: as §3

Amaranthus retroflexus [18] = experiment: Herbicidal pre-emergence action (Part 2), 1280 g/ha; assay type: in vivo; conditions: application rate 1280 g/ha, scored visually after about 3 weeks, Table D6
In short: (§4)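 Weed seeds were sown in sandy loam and covered with soil, then compound formulated as WP or EC was sprayed onto the covering soil as aqueous suspension/emulsion with 0.5% additive at 600 L/ha water. Pots were kept in a greenhouse; activity was scored visually versus untreated controls after about 3 weeks (0–100%).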

Echinochloa crus-galli [19] = experiment: as above; assay type: in vivo; conditions: application rate 1280 g/ha, scored visually after about 3 weeks, Table D1
In short: as §4

Matricaria inodora [20] = experiment: as above; assay type: in vivo; conditions: application rate 1280 g/ha, scored visually after about 3 weeks, Table D7
In short: as §4

Poa annua = experiment: as above; assay type: in vivo; conditions: application rate 1280 g/ha, scored visually after about 3 weeks, Table D3
In short: as §4

Stellaria media [21] = experiment: as above; assay type: in vivo; conditions: application rate 1280 g/ha, scored visually after about 3 weeks, Table D8
In short: as §4

Abutilon theophrasti [22] = experiment: Post-emergence herbicidal action, greenhouse, 320 g/ha; assay type: in vivo; conditions: application rate 320 g/ha, rated visually after about 3 weeks vs untreated controls
In short: as §1

Amaranthus retroflexus [23] = experiment: as above; assay type: in vivo; conditions: application rate 320 g/ha, rated visually after about 3 weeks vs untreated controls
In short: as §1

Matricaria inodora [24] = experiment: as above; assay type: in vivo; conditions: application rate 320 g/ha, rated visually after about 3 weeks vs untreated controls
In short: as §1

Polygonum convolvulus [25] = experiment: as above; assay type: in vivo; conditions: application rate 320 g/ha, rated visually after about 3 weeks vs untreated controls
In short: as §1

Setaria viridis [26] = experiment: as above; assay type: in vivo; conditions: application rate 320 g/ha, rated visually after about 3 weeks vs untreated controls
In short: as §1

Stellaria media [27] = experiment: as above; assay type: in vivo; conditions: application rate 320 g/ha, rated visually after about 3 weeks vs untreated controls
In short: as §1

Veronica persica [28] = experiment: as above; assay type: in vivo; conditions: application rate 320 g/ha, rated visually after about 3 weeks vs untreated controls
In short: as §1

Viola tricolor [29] = experiment: as above; assay type: in vivo; conditions: application rate 320 g/ha, rated visually after about 3 weeks vs untreated controls
In short: as §1

Veronica persica [30] = experiment: Pre-emergence herbicidal action, greenhouse, 320 g/ha; assay type: in vivo; conditions: application rate 320 g/ha, Table B13
In short: as §2

photosystem II (PS II) = target: T1, photosystem II (PS II) (Spinacia oleracea, UniProt P69560); experiment: Measurement of PS II activity in thylakoid membranes (DCPIP reduction); assay type: biochemical, spinach; conditions: PS II activity in spinach thylakoid membranes, Table E1; read-out: Effect
T1 construct: the chloroplasts were osmotically ruptured and the thylakoid membranes were then obtained by centrifugation; from tissue; host or cells: fresh spinach leaves; thylakoid membrane preparation from isolated chloroplasts
Description: Cooled fresh spinach leaves were comminuted and homogenized in 50 mM phosphate buffer, pH 6.8. 10 mM KCl, 0.34 M sucrose (sucrose buffer) (blender, 1 g of plant material/ml). The homogenate was subsequently filtered through 4 layers of Miracloth and the chloroplasts were isolated by centrifugation, i.e. 10 min of centrifugation at 4400×g (4° C.). The sediment was suspended in 25 ml of sucrose buffer and re-centrifuged for 10 min at 4400×g (4° C.). The sediment was then suspended in 40 ml of 50 mM phosphate buffer, pH 6.8, 10 mM KCl, without sucrose. In this step, the chloroplasts were osmotically ruptured and the thylakoid membranes were then obtained by centrifugation (10 min, 4400×g, 4° C.). The membrane sediment was finally suspended in about 20 ml of 50 mM phosphate buffer, pH 6.8, 10 mM KCl. Following protein determination and activity determination, the membrane suspension was divided into aliquots and frozen in liquid nitrogen. The aliquots were stored at −80° C. Under these conditions, the photosystem II preparation was storage stable for at least three months. The activity determination of photosystem II (PS II) was then carried out using the following test principle: The electron transfer from PS II to an artificial electron acceptor, 2,6-dichlorophenolindophenol (DCPIP), was measured with exposure to light. The concentration of the blue oxidized form of DCPIP was determined spectrophotometrically at wavelength λ=595 nm. […] The activity determination is carried out in microtiter plates (96 cavities) in a reaction volume of 200 μl. Here, 155 μl of dilute membrane suspension were initially charged in 50 mM of phosphate buffer, pH 6.8, 10 mM KCl. Depending on the activity of the PS II preparation, the dilution was adjusted such that the measurement of the decrease in absorption (λ=595 nm) was linear for at least 10 min. In each case 5 μl solutions of the test compounds of a concentration of 100 μM in DMSO were added to the enzyme suspension; controls contained 5 μl of DMSO; the final concentration of DMSO in the reaction batch was thus 2.5% (v/v); this concentration had no adverse effect on the enzymatic activity. On each microtiter plate, a known PS II inhibitor, for example metribuzin, was used as standard, which allowed the quality of the PS II test to be assessed. The reaction was started by addition of 40 μl DCPIP solution (600 μM in distilled water); the final concentration of DCPIP was 120 μM. Measurement of absorption is carried out over a period of 10 min at 22° C. and with exposure to light. Using metribuzin as comparative substance, the results for the efficacy of the compounds of the general formula (I) at 100 μM are stated in the table below using the following classification: ++++(inhibition≥90%), +++(90%>inhibition≥70%), ++(70%>inhibition≥50%), +(50%>inhibition≥30%).

Pharbitis purpurea [31] = experiment: Pre-emergence herbicidal action, greenhouse, 320 g/ha; assay type: in vivo; conditions: application rate 320 g/ha, Table B12
In short: as §2

Abutilon theophrasti [32] = experiment: Herbicidal pre-emergence action (Part 2), 1280 g/ha; assay type: in vivo; conditions: application rate 1280 g/ha, scored visually after about 3 weeks, Table D5
In short: as §4

Lolium rigidum = experiment: as above; assay type: in vivo; conditions: application rate 1280 g/ha, scored visually after about 3 weeks, Table D2
In short: as §4

Setaria viridis [33] = experiment: as above; assay type: in vivo; conditions: application rate 1280 g/ha, scored visually after about 3 weeks, Table D4
In short: as §4

Row | SMILES | Digitaria sanguinalis (efficacy in %) (Digitaria sanguinalis [1]) | Hordeum murinum (efficacy in %) (Hordeum murinum [2]) | Pharbitis purpurea (efficacy in %) (Pharbitis purpurea [3]) | Abutilon theophrasti (efficacy in %) (Abutilon theophrasti [4]) | Alopecurus myosuroides (efficacy in %) (Alopecurus myosuroides) | Amaranthus retroflexus (efficacy in %) (Amaranthus retroflexus [5]) | Avena fatua (efficacy in %) (Avena fatua) | Echinochloa crus-galli (efficacy in %) (Echinochloa crus-galli [7]) | Hordeum murinum (efficacy in %) (Hordeum murinum [8]) | Matricaria inodora (efficacy in %) (Matricaria inodora [9]) | Polygonum convolvulus (efficacy in %) (Polygonum convolvulus [10]) | Setaria viridis (efficacy in %) (Setaria viridis [11]) | Stellaria media (efficacy in %) (Stellaria media [12]) | Viola tricolor (efficacy in %) (Viola tricolor [13]) | Abutilon theophrasti (efficacy in %) (Abutilon theophrasti [22]) | Amaranthus retroflexus (efficacy in %) (Amaranthus retroflexus [23]) | Matricaria inodora (efficacy in %) (Matricaria inodora [24]) | Polygonum convolvulus (efficacy in %) (Polygonum convolvulus [25]) | Stellaria media (efficacy in %) (Stellaria media [27]) | Viola tricolor (efficacy in %) (Viola tricolor [29]) | also measured
1 | CC(=O)OC1CC(C)N(C)C(=O)N1c1cc(C(C)(C)C)on1 (mixture of isomers) [I.42-162] | 100% | 90% | 100% | 100% | 90% | 100% | 80% | 80% | 90% | 100% | 90% | 100% | 100% | 90% | – | – | – | – | – | – | Digitaria sanguinalis (efficacy in %) (Digitaria sanguinalis [6]): 80%; Amaranthus retroflexus (Amaranthus retroflexus [14]): 100%; Echinochloa crus-galli (Echinochloa crus-galli [15]): 100%; Matricaria inodora (Matricaria inodora [16]): 100%; Stellaria media (Stellaria media [17]): 100%; Amaranthus retroflexus (Amaranthus retroflexus [18]): 100%; Echinochloa crus-galli (Echinochloa crus-galli [19]): 100%; Matricaria inodora (Matricaria inodora [20]): 100%; Poa Annua (Poa annua): 100%; Stellaria media (Stellaria media [21]): 100%
2 | CCCC(=O)OC1CCN(C)C(=O)N1c1cc(C(C)(C)C)on1 (stereo not drawn) [I.4-162, 3-(5-tert-Butyl-1,2-oxazol-3-yl)-1-methyl-2-oxohexahydropyrimidin-4-yl Butyrate] | 80% | – | 100% | 100% | 90% | 100% | 90% | 90% | 90% | 100% | 90% | 100% | 100% | 100% | 100% | 100% | 100% | 100% | 100% | 90% | Setaria viridis (efficacy in %) (Setaria viridis [26]): 100%; Veronica persica (efficacy in %) (Veronica persica [28]): 100%; Veronica persica (efficacy in %) (Veronica persica [30]): 100%; inhibition at 100 µM (photosystem II (PS II)): 50 to 70%
3 | CN1CCC(OC(=O)C(C)(C)C)N(c2cc(C(C)(C)C)on2)C1=O (stereo not drawn) [I.6-162] | – | 90% | 90% | 100% | 90% | 100% | 90% | 100% | 90% | 100% | 90% | 100% | 100% | 100% | 100% | 80% | 100% | 100% | 100% | 100% | Setaria viridis (efficacy in %) (Setaria viridis [26]): 100%; Pharbitis purpurea (efficacy in %) (Pharbitis purpurea [31]): 90%; Veronica persica (efficacy in %) (Veronica persica [30]): 100%
4 | CCC(=O)OC1CC2CCCN2C(=O)N1c1cc(C(C)(C)C)on1 (stereo not drawn) [I.123-162] | 100% | – | – | – | – | – | – | – | – | – | – | – | – | – | 100% | 100% | 80% | 100% | 100% | 100% | Abutilon theophrasti (Abutilon theophrasti [32]): 100%; Amaranthus retroflexus (Amaranthus retroflexus [18]): 100%; Echinochloa crus-galli (Echinochloa crus-galli [19]): 100%; Lolium rigidum (Lolium rigidum): 100%; Matricaria inodora (Matricaria inodora [20]): 100%; Poa Annua (Poa annua): 100%; Setaria viridis (Setaria viridis [33]): 100%; Stellaria media (Stellaria media [21]): 100%
